According to patent publication US10441669B2, “Multifunctional chelators, complexes, and compositions thereof, and methods of using same” (ILLINOIS INSTITUTE OF TECHNOLOGY, priority 2013, dated 2019):
Where two headings read alike, the source gives them in different places.

Assays:
[1] = In vitro serum stability of 90Y-radiolabeled 5p-C-NETA and NETA-RGD; conditions: 37° C., pH 7, 14 days, ITLC
Method: (§3) In vitro serum stability of 5p-C-NETA and NETA-RGD conjugates radiolabeled with ^90Y or ^177Lu was performed to determine if NETA chelators or NETA-RGD conjugates radiolabeled with ^90Y or ^177Lu remained stable without loss of ^90Y or ^177Lu in human serum. This was assessed by measuring the transfer of ^90Y or ^177Lu from the complex to serum proteins over the course of 14 days using ITLC. ^90Y or ^177Lu-radiolabeled complexes was prepared from the reactions of the bifunctional chelators with ^90Y or ^177Lu at room temperature and directly used for serum stability studies (37° C., pH 7).

[2] = In vitro serum stability of 177Lu-radiolabeled 5p-C-NETA and NETA-RGD; conditions: 37° C., pH 7, 14 days, ITLC
Method: as §3

[3] = Stability and radioactivity level of 64Cu complexes in mice; assay type: in vivo; conditions: 64Cu complex
[4] = EDTA challenge of 64Cu-radiolabeled complexes of chelators A-F; assay type: physicochemical; conditions: EDTA 100-fold molar excess; for Bound complex (%): 64Cu complex, 37° C.; for 64Cu activity dissociated from the complex / transferred to EDTA: 24 h time point
Method: ^64Cu-radiolabeled complexes were further evaluated for complex stability based on EDTA challenge. ^64Cu-radiolabeled complexes were freshly prepared and treated with a solution of EDTA at a 100-fold molar excess, and the resulting solution (pH 5.5) was incubated at 37° C. for 24 h. […] Among the complexes tested, ^64Cu-radiolabeled pentadentate chelator B was least tolerant of EDTA treated, and most of ^64Cu was dissociated from the complex (˜80%) at 24 h time point. ^64Cu-radiolabeled chelator C containing the carbonyl donor group was found dissociated rapidly in the presence of the excess EDTA, and 50% of the activity was transchelated by EDTA at 1 h time point. ^64Cu-radiolabeled chelators D and F with the respective hydroxyl and thiophenyl donor group were slower in dissociation than ^64Cu-radiolabeled chelators B and C and released >45% of ^64Cu at 24 h time point. Dissociation of the activity from the ^64Cu-radiolabeled chelators was also measured using radio-HPLC at 25 h time point (FIG. 5). The peak related to ^64Cu-EDTA (tR=2.5 min) was clearly separated from bound ^64Cu complex of the chelators. ^64Cu-radiolabeled complex of polar chelators E and F have the respective retention time at […] and 6.2 min, while other ^64Cu-radiolabeled complexes have similar retention time (tR=7˜8 min). The ^64Cu-radiolabeled chelators C and D gave a small peak (tR=˜3 min and tR=˜7 min, respectively).
^64Cu-radiolabeled complexes were prepared by reaction of each chelator (20 μg) with ^64Cu (60 μCi) in 0.25M NH4OAc buffer (pH 5.5) for 2 h at room temperature. The radiolabeled complexes were prepared as described above and directly used for the experiments. ^64Cu-radiolabeled complex was mixed with EDTA at a 100-fold molar excess. The resulting mixture was incubated for 24 h at 37° C. The stability of ^64Cu-radiolabeled complexes in the solution was evaluated using ITLC (20 mM EDTA in 0.15M NH4OAc). A solution of the radiolabeled complex in serum (3˜20 μL) was withdrawn at the designated time points and evaluated by ITLC as described above. Stability of the complexes was also evaluated at 25 h time point by HPLC (solvent A: 0.1% TFA in H2O, solvent B: 0.1% TFA in CH3CN, 0-100% B/15 min, flow rate: 1 mL/min). ^64Cu-EDTA complex was eluted early (tR=˜2.5 min), while ^64Cu-radiolabeled complexes of chelators A-D, E, and F have the respective retention time (tR=7˜8 min, tR=4.6 min, and tR=6.2 min).

[5] = In vitro serum stability of 177Lu-radiolabeled 3p-C complexes; assay type: in vitro ADME; conditions: human serum, 37° C., in 72 h
Method: (§1) A significant amount of the radioactivity from both ^90Y-3p-C-DEPA (4) and ^177Lu-3p-C-DEPA (4) was transchelated to serum (25% and 40% in 72 h, respectively). As expected, both ^90Y and ^177Lu complexes of 3p-C-NOTA […] were not stable in serum, and ˜80% of ^90Y and ˜36% of ^177Lu was released from the complexes on day 7. […] However, ^90Y-3p-C-NE3TA underwent rapid dissociation, losing ˜25% of ^90Y to serum in 3 days.
(§2) Human serum was purchased from Gemini Bioproducts (#100110). ^90Y- or ^177Lu-radiolabeled complexes (0.25M NH40OAc, pH 5.5) were prepared from the reaction of chelators with ^90Y or ^177Lu at room temperature or 37° C. Completion of radiolabeling was monitored by ITLC eluted, and the freshly prepared radiolabeled complexes were used for serum stability without further purification. ^90Y-3p-C-DETA, ^90Y-3p-C-NE3TA and ^90Y-3-C-NOTA were prepared by a reaction of 3p-C-DETA (1), 3p-C-NE3TA (2) and 3p-C-NOTA (3) (50 μg) with ^90Y (150 μCi) in 0.25 M NH4OAc buffer (pH 7.0). […] The stability of the radiolabeled complexes in human serum was evaluated at 37° C. over 14 days. The serum stability of the radiolabeled complexes was assessed by measuring the transfer of the radionuclide from each complex to serum proteins using ITLC eluted with CH3CN/H2O (3:2 v/v) or 20 mM EDTA in 0.15 M NH4OAc. […]

[6] = In vitro serum stability of 90Y-radiolabeled 3p-C complexes; assay type: in vitro ADME; conditions: human serum, 37° C., in 72 h (3 days)
Method: as §1, §2

[7] = In vitro serum stability of 64Cu-radiolabeled complexes of chelators A-F; assay type: in vitro ADME; conditions: human serum, over 2 days; listed as 64Cu-chelator E
Method: In vitro serum stability of the radiolabeled complexes was performed to determine if the chelators radiolabeled with ^64Cu remained stable without loss of the radioactivity in human serum. This was assessed by measuring the transfer of ^64Cu from the complex to human serum proteins using ITLC (20 mM EDTA in 0.15M NH4OAc, Table 2). ^64Cu-radiolabeled chelators were readily prepared from the reactions of the chelators with ^64Cu at room temperature. Essentially no unbound ^64Cu was detected in the reaction mixture at 2 h time point after the reaction at room temperature as determined by ITLC. The ^64Cu-radiolabeled chelators were directly used for serum stability studies (pH 7, 37° C.) without further purification. All ^64Cu-radiolabeled complexes remained intact in human serum for 2 days as evidenced by ITLC analysis (Supporting Information). […] A tiny amount of ^64Cu (<0.3%) was detected from other ^64Cu-complexes of chelators B, D-F.
The freshly prepared radiolabeled complexes were directly used for serum stability studies without further purification. ^64Cu-radiolabeled complex (85 μCi, 10 μL) was added to human serum (90 μL) in a microcentrifuge tube. The stability of ^64Cu-radiolabeled complexes in human serum was evaluated at 37° C. for 2 days. A solution of the radiolabeled complex in serum was withdrawn at the designated time points and evaluated by ITLC as described above.

[8] = pH 7
Method: as §3

[9] = pH 7; remark: listed apart in the source
Method: as §3

[10] = set-up: species or system mice; conditions: mouse, in vivo

SMILES | stability in mice and radioactivity level in blood and normal organs [3] | Bound complex (%) ([4]; pH 5.5, ITLC, 0 h) | Bound complex (%) ([4]; pH 5.5, ITLC, 1 h) | Bound complex (%) ([4]; pH 5.5, ITLC, 4 h) | Bound complex (%) ([4]; pH 5.5, ITLC, 19 h) | Bound complex (%) ([4]; pH 5.5, ITLC, 24 h) | Bound complex (%) ([4]; pH 5.5, radio-HPLC, 25 h) | 64Cu activity dissociated from the complex / transferred to EDTA [4] | also measured
O=C(O)CN1CCN(CC(=O)O)CCN(CC(CCCCCc2ccc([N+](=O)[O-])cc2)N(CC(=O)O)CC(=O)O)CC1 (stereo not drawn) [Chelator 5p-C-NETA, 2-({1-[4,7-bis(carboxymethyl)-1,4,7-triazonan-1-yl]-7-(4-nitrophenyl)heptan-2-yl}(carboxy-methyl)amino)acetic acid] |  |  |  |  |  |  |  |  | stability of 90Y complex in human serum [1]: remained stable in human serum without releasing the radioactivity into the serum; stability of 177Lu complex in human serum [2]: remained stable in human serum without releasing the radioactivity into the serum
O=C(O)CN1CCN(CC(=O)O)CCN(C(CCc2ccc([N+](=O)[O-])cc2)C(=O)O)CC1 (stereo not drawn) [Chelator A, 2-[4,7-bis(carboxymethyl)-1,4,7-triazonan-1-yl]-4-(4-nitrophenyl)butanoic acid, reference compound] | stable in mice and displayed low radioactivity level in the blood and the normal organs | 99.9 ± 0.1% | 98.6 ± 0.6% | 96.8 ± 0.0% | 95.3 ± 0.5% | 94.9 ± 0.0% | 90.3 ± 0.3% | ~5% | 
O=C(O)CN1CCN(CC(=O)O)CCN(CC(CCCc2ccc([N+](=O)[O-])cc2)N(CC(=O)O)CC(=O)O)CCN(CC(=O)O)CC1 (stereo not drawn) [Chelator 3p-C-DEPA] |  |  |  |  |  |  |  |  | 177Lu transchelated to serum [5]: 40%; 90Y transchelated/lost to serum [6]: 25%
O=C(O)CN1CCN(CC(=O)O)CCN(Cc2ccccn2)CC1 [Chelator E, 2-[4-(carboxymethyl)-7-(pyridin-2-ylmethyl)-1,4,7-triazonan-1-yl]acetic acid] | stable in mice and displayed low radioactivity level in the blood and the normal organs | 99.7 ± 0.1% | 98.2 ± 0.3% | 92.6 ± 0.3% | 93.6 ± 0.1% | 94.3 ± 0.6% | 93.1 ± 0.1% | ~5% | 64Cu dissociated/released from the complex in serum [7]: No measurable radioactivity was released
N=C(N)NCCC[C@@H]1NC(=O)[C@H](CCCCNC(=S)Nc2ccc(CCCCCC(CN3CCN(CC(=O)O)CCN(CC(=O)O)CC3)N(CC(=O)O)CC(=O)O)cc2)NC(=O)[C@@H](Cc2ccc(O)cc2)NC(=O)[C@H](CC(=O)O)NC(=O)CNC1=O (stereo partly drawn) [5p-C-NETA-RGD] |  |  |  |  |  |  |  |  | stability of 177Lu complex in human serum [8]: remained quite stable in human serum over 2 weeks period; stability of 90Y complex in human serum [9]: remained quite stable in human serum over 2 weeks period; tumor targeting and biodistribution profile [10]: target tumors in mice and produced a favorable biodistribution profile with rapid blood clearance and low organ uptake
